How the values were obtained:
Assay in all cases: relative viability (nuclei count vs DMSO), 5 days (fraction); higher = more cells survive
[1] = compound: CC(C)N(CCCNC(=O)Nc1ccc(C(C)(C)C)cc1)C[C@H]1O[C@@H](n2ccc3c(N)ncnc32)[C@H](O)[C@@H]1O + CS(=O)(=O)N1CCN(Cc2cc3nc(-c4cccc5[nH]ncc45)nc(N4CCOCC4)c3s2)CC1 [Pictilisib] (partner 1 µM)
In short: (§1)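 One day after seeding in 1536-well plates, lung cancer cell lines were dosed by pin tool. Dosing was either single-drug or a fixed anchor-drug dose plus five library-drug doses (not always all listed) in √10 steps. After 5 days, nuclei were stained in one fix-and-stain step and counted on 4× images, and relative viability is the nuclei count of treated wells over that of vehicle wells, given as the median of duplicate plates.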

Shikonin + Luminespib = compound: CC(C)=CC[C@@H](O)C1=CC(=O)c2c(O)ccc(O)c2C1=O [Shikonin] + CCNC(=O)c1noc(-c2cc(C(C)C)c(O)cc2O)c1-c1ccc(CN2CCOCC2)cc1 [Luminespib] (partner 0.01 µM)
In short: as §1

Shikonin + Trametinib = compound: CC(C)=CC[C@@H](O)C1=CC(=O)c2c(O)ccc(O)c2C1=O [Shikonin] + CC(=O)Nc1cccc(-n2c(=O)n(C3CC3)c(=O)c3c(Nc4ccc(I)cc4F)n(C)c(=O)c(C)c32)c1 [Trametinib] (partner 0.02 µM)
In short: as §1

[2] = compound: CC(C)N(CCCNC(=O)Nc1ccc(C(C)(C)C)cc1)C[C@H]1O[C@@H](n2ccc3c(N)ncnc32)[C@H](O)[C@@H]1O + O=C(c1cc(Cc2n[nH]c(=O)c3ccccc23)ccc1F)N1CCN(C(=O)C2CC2)CC1 [Olaparib] (partner 8 µM)
In short: as §1

Cell Line	relative viability ([1]; first compound 0.08 µM)	relative viability ([1]; first compound 0.253 µM)	relative viability ([1]; first compound 0.8 µM)	relative viability ([1]; first compound 2.53 µM)	relative viability ([1]; first compound 8 µM)	relative viability (Shikonin + Luminespib; first compound 0.01 µM)	relative viability (Shikonin + Luminespib; first compound 0.1 µM)	relative viability (Shikonin + Luminespib; first compound 0.3162 µM)	relative viability (Shikonin + Luminespib; first compound 1 µM)	relative viability (Shikonin + Trametinib; first compound 0.01 µM)	relative viability (Shikonin + Trametinib; first compound 0.1 µM)	relative viability (Shikonin + Trametinib; first compound 0.3162 µM)	relative viability (Shikonin + Trametinib; first compound 1 µM)	relative viability ([2]; first compound 0.08 µM)	relative viability ([2]; first compound 0.253 µM)	relative viability ([2]; first compound 0.8 µM)	relative viability ([2]; first compound 2.53 µM)	relative viability ([2]; first compound 8 µM)
NCI-H460	0.305	0.391	0.335	0.381	0.38	0.0384	0.034	0.0299	0.0321	0.159	0.164	0.131	0.135	0.391	0.433	0.388	0.33	0.345
NCI-H520	0.273	0.247	0.215	0.282	0.301	0.253	0.216	0.21	0.207	0.685	0.631	0.677	0.679	0.303	0.389	0.356	0.331	0.333
NCI-H596	0.388	0.412	0.173	0.355	0.414	1.14	1.22	1.16	1.13	0.94	0.827	0.841	0.839	0.667	0.67	0.531	0.704	0.723
NCI-H647	0.406	–	0.403	0.45	0.372	0.169	0.142	0.147	0.159	0.414	0.356	0.443	0.451	0.439	0.507	0.508	0.587	0.543
NCI-H650	0.807	0.907	0.887	0.867	0.824	0.678	0.822	0.79	0.61	0.988	1.19	0.996	0.982	0.376	0.468	0.305	0.32	0.328
NCI-H661	0.542	0.281	0.428	0.376	0.422	0.951	1.06	0.932	0.858	0.559	0.536	0.505	0.576	0.85	0.758	0.795	0.786	0.729
NCI-H727	0.358	0.375	0.397	0.458	0.331	0.412	0.462	0.233	0.329	0.351	0.375	0.389	0.409	0.587	0.676	0.673	0.759	0.647
NCI-H838	0.328	0.372	0.425	0.473	0.494	0.369	0.237	0.317	0.258	0.619	0.505	0.551	0.564	0.75	0.829	0.794	0.812	0.728
NCI-H1355	0.376	0.337	–	0.518	0.404	0.724	0.795	0.79	0.714	0.405	0.42	0.424	0.395	0.695	0.776	0.667	0.754	0.716
NCI-H1395	0.595	0.55	–	0.59	0.738	0.672	0.793	0.744	0.655	0.994	1.18	1.09	0.923	0.496	0.443	0.405	0.464	0.438
NCI-H1437	0.362	0.358	0.526	0.428	0.441	1.17	1.18	1.1	1.1	0.539	0.433	0.458	0.504	0.604	0.642	0.624	0.592	0.561
NCI-H1650	0.55	0.52	–	0.56	0.624	0.195	0.198	0.175	0.193	0.582	0.492	0.523	0.491	0.662	0.922	0.805	0.642	0.754
NCI-H1651	0.601	0.567	0.498	0.565	0.6	0.914	0.821	0.714	0.984	0.882	0.873	0.882	0.83	0.174	0.197	0.17	0.185	0.173
NCI-H1666	0.354	0.405	0.39	0.405	0.355	0.986	1.08	0.932	1.04	0.896	0.855	1.02	0.772	0.704	0.755	0.828	0.739	0.698
NCI-H1734	0.405	0.531	0.435	0.496	0.413	0.173	0.199	0.216	0.131	0.664	0.771	0.747	0.732	0.574	0.608	0.539	0.662	0.529
NCI-H1755	0.469	0.478	0.357	0.452	0.394	0.428	0.439	0.576	0.378	0.703	0.812	0.756	0.742	0.892	0.902	0.861	0.828	0.793
NCI-H1792	0.26	0.245	0.219	0.254	0.267	0.554	0.361	0.371	0.544	0.476	0.327	0.424	0.553	0.434	–	0.365	0.374	0.399
NCI-H1793	0.296	–	0.369	0.281	0.35	0.164	0.196	0.155	0.535	0.393	0.414	0.392	0.417	0.808	–	0.864	0.848	0.739
